Test: Oxygen content of suspensions by glucose assay solution (glucose oxidase/peroxidase, absorbance at 540 nm) and Equation 1
Type: physicochemical
Details: 37° C., 1 AP
Protocol: To confirm the oxygen carrying capability of the single coated nanoemulsion particle AOCs, the amount of dissolved oxygen in water was measured. The linear dependence of the absorbance at 540 nm in response to the concentration of glucose was first confirmed at 37° C. in the presence of sufficient amount of oxygen, and then the limiting amount of oxygen concentration was estimated in the presence of sufficient amount of glucose. […] The DI water was added to make the total volume 1.41 μl and the absorbance determined at 540 nm. The absorbance was plotted against the molar concentration of dissolved oxygen assuming that the air at 1 AP and 37° C., water contains 215.6 μmol/L of O2. The experimentally determined oxygen content in the coated AOC suspension is a composite of oxygen content in water and in the perfluorocarbon. Quantitatively, CO2 total=CO2 PFC VPFC+CO2 water Vwater=CO2 PFC VPFC+CO2 water(1−VPFC) (Equation 1) where, CO2 total is the total oxygen concentration of the sample, and CO2 PFC and CO2 water are the concentrations of oxygen in PFC and water at a given partial pressure of oxygen and temperature, and similarly V's are the volume fractions of PFC and water. […] The reaction was allowed to proceed for 30 minutes at 37° C. and the absorption was measured at 540 nm in order to estimate the amount of oxygen present in the uncoated and coated products.

**Q.** With `FC(F)(F)C(F)(F)C(F)(F)C(F)(F)C(F)(F)C(F)(F)C(F)(F)C(F)(F)Br` [emulsified PFOB, perfluorooctylbromide] as the compound, how does the “oxygen content, estimated CSAT” value read?
**A.** The value was 3,640 μmol/L.

Reference: patent US9415021B2, “Synthesis of oxygen carrying, turbulence resistant, high density submicron particulates” (Nanoshell Company, LLC, priority 2009, dated 2016)
